System: HEK293
Assay: Cytotoxicity against HEK293 cells by MTT assay
Type: functional, cell-based
Settings: Homo sapiens

Structure (SMILES) | IC50
CC1=CC2=C(C)C3(CC3)[C@@](C)(O)C(=O)C2=C1 [ACYLFULVENE] | 1400 nM
CC1=C(CO)C2=C(C)C3(CC3)[C@@](C)(O)C(=O)C2=C1 [IROFULVEN] | 1200 nM
